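Method: 48-hour compound exposure of cells in 96-well plates, five concentrations, linear interpolation of endpoints. Abbreviation: GI50, concentration required for 50% inhibition of growth. At the TGI there is no net growth.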
Columns and labels:
Experiment in all cases: growth of human tumour cells (NCI), 48 h
LOX IMVI melanoma = system: LOX IMVI melanoma
A498 renal = system: A498 renal
M14 melanoma = system: M14 melanoma
HT29 colon = system: HT29 colon
UO-31 renal = system: UO-31 renal
HL-60(TB) leukemia = system: HL-60(TB) leukemia
BT-549 breast = system: BT-549 breast
SNB-75 CNS = system: SNB-75 CNS
NCI-H23 lung = system: NCI-H23 lung
OVCAR-8 ovarian = system: OVCAR-8 ovarian
SNB-19 CNS = system: SNB-19 CNS
IGROV1 ovarian = system: IGROV1 ovarian
U251 CNS = system: U251 CNS
TK-10 renal = system: TK-10 renal
SK-MEL-28 melanoma = system: SK-MEL-28 melanoma
HOP-62 NSCLC = system: HOP-62 NSCLC
UACC-257 melanoma = system: UACC-257 melanoma
SF-268 CNS = system: SF-268 CNS
SK-MEL-5 melanoma = system: SK-MEL-5 melanoma
T-47D breast = system: T-47D breast
PC-3 prostate = system: PC-3 prostate
ACHN renal = system: ACHN renal
HCC-2998 colon = system: HCC-2998 colon
UACC-62 melanoma = system: UACC-62 melanoma
SW-620 colon = system: SW-620 colon
MCF7 breast = system: MCF7 breast
HCT-15 colon = system: HCT-15 colon
SK-OV-3 ovarian = system: SK-OV-3 ovarian
RXF 393 renal = system: RXF 393 renal
NCI-H226 lung = system: NCI-H226 lung
MALME-3M melanoma = system: MALME-3M melanoma
K-562 leukemia = system: K-562 leukemia
HS 578T breast = system: HS 578T breast
SK-MEL-2 melanoma = system: SK-MEL-2 melanoma
SF-539 CNS = system: SF-539 CNS
DU-145 prostate = system: DU-145 prostate
HCT-116 colon = system: HCT-116 colon
SN12C renal = system: SN12C renal
786-0 renal = system: 786-0 renal
NCI-H460 lung = system: NCI-H460 lung
OVCAR-5 ovarian = system: OVCAR-5 ovarian
OVCAR-3 ovarian = system: OVCAR-3 ovarian
MDA-MB-231 breast = system: MDA-MB-231 breast
NCI/ADR-RES ovarian = system: NCI/ADR-RES ovarian
A549 NSCLC = system: A549 NSCLC
MDA-MB-435 = system: MDA-MB-435
EKVX NSCLC = system: EKVX NSCLC
HOP-92 NSCLC = system: HOP-92 NSCLC
OVCAR-4 ovarian = system: OVCAR-4 ovarian
COLO 205 colon = system: COLO 205 colon
NCI-H522 lung = system: NCI-H522 lung
CAKI-1 renal = system: CAKI-1 renal
SR leukemia = system: SR leukemia
SF-295 CNS = system: SF-295 CNS
RPMI-8226 leukemia = system: RPMI-8226 leukemia
MOLT-4 leukemia = system: MOLT-4 leukemia
KM12 colon = system: KM12 colon
CCRF-CEM leukemia = system: CCRF-CEM leukemia

With CC1=CC2C(C(C)C)CC1C1C(=O)OC(=O)C21 (stereo not given) the TGI (LOX IMVI melanoma) was > 100 µM, the TGI (A498 renal) was > 100 µM and the TGI (M14 melanoma) was > 100 µM. For the same compound, the TGI (HT29 colon) was > 100 µM, the TGI (UO-31 renal) was > 100 µM and the TGI (HL-60(TB) leukemia) was 77.8 µM. The TGI (BT-549 breast) was > 100 µM, the TGI (SNB-75 CNS) was > 100 µM and the TGI (NCI-H23 lung) was > 100 µM. The TGI (OVCAR-8 ovarian) was > 100 µM, the TGI (SNB-19 CNS) was > 100 µM and the TGI (IGROV1 ovarian) was > 100 µM. The TGI (U251 CNS) was > 100 µM, the TGI (TK-10 renal) was > 100 µM and the TGI (SK-MEL-28 melanoma) was > 100 µM. For the same compound, the TGI (HOP-62 NSCLC) was > 100 µM, the TGI (UACC-257 melanoma) was > 100 µM and the TGI (SF-268 CNS) was > 100 µM. For the same compound, the TGI (SK-MEL-5 melanoma) was > 100 µM, the TGI (T-47D breast) was > 100 µM and the TGI (PC-3 prostate) was > 100 µM. For the same compound, the TGI (ACHN renal) was > 100 µM, the TGI (HCC-2998 colon) was > 100 µM and the TGI (UACC-62 melanoma) was > 100 µM. The TGI (SW-620 colon) was > 100 µM, the TGI (MCF7 breast) was > 100 µM and the TGI (HCT-15 colon) was > 100 µM. For the same compound, the TGI (SK-OV-3 ovarian) was > 100 µM, the TGI (RXF 393 renal) was > 100 µM and the TGI (NCI-H226 lung) was > 100 µM. The TGI (MALME-3M melanoma) was > 100 µM, the TGI (K-562 leukemia) was > 100 µM and the TGI (HS 578T breast) was > 100 µM. The TGI (SK-MEL-2 melanoma) was > 100 µM, the TGI (SF-539 CNS) was > 100 µM and the TGI (DU-145 prostate) was > 100 µM. The TGI (HCT-116 colon) was > 100 µM, the TGI (SN12C renal) was > 100 µM and the TGI (786-0 renal) was > 100 µM. For the same compound, the TGI (NCI-H460 lung) was > 100 µM, the TGI (OVCAR-5 ovarian) was > 100 µM and the TGI (OVCAR-3 ovarian) was 58.8 µM. For the same compound, the TGI (MDA-MB-231 breast) was > 100 µM, the TGI (NCI/ADR-RES ovarian) was > 100 µM and the TGI (A549 NSCLC) was > 100 µM. For the same compound, the TGI (MDA-MB-435) was > 100 µM, the TGI (EKVX NSCLC) was > 100 µM and the TGI (HOP-92 NSCLC) was > 100 µM. The TGI (OVCAR-4 ovarian) was > 100 µM, the TGI (COLO 205 colon) was > 100 µM and the TGI (NCI-H522 lung) was > 100 µM.

For C[C@@]1(N2C(=O)OC[C@@H]2c2ccccc2)C(=O)N([C@H](CC(=O)N2CCC(N3CCCCC3)CC2)C(=O)NCc2cccc(C(F)(F)F)c2)[C@@H]1/C=C/c1ccccc1, the GI50 (LOX IMVI melanoma) was 1.81 µM, the TGI (LOX IMVI melanoma) was 3.5 µM and the GI50 (A498 renal) was 1.88 µM. For the same compound, the TGI (A498 renal) was 5.98 µM, the GI50 (M14 melanoma) was 1.93 µM and the TGI (M14 melanoma) was 3.6 µM. For the same compound, the GI50 (HT29 colon) was 2.31 µM, the TGI (HT29 colon) was 5.7 µM and the GI50 (UO-31 renal) was 1.79 µM. For the same compound, the TGI (UO-31 renal) was 3.52 µM, the GI50 (HL-60(TB) leukemia) was 2.13 µM and the TGI (HL-60(TB) leukemia) was 4.65 µM. For the same compound, the GI50 (BT-549 breast) was 3.29 µM, the TGI (BT-549 breast) was 9.33 µM and the GI50 (SNB-75 CNS) was 1.28 µM. For the same compound, the TGI (SNB-75 CNS) was 2.95 µM, the GI50 (CAKI-1 renal) was 2.3 µM and the TGI (CAKI-1 renal) was 6.55 µM. The GI50 (NCI-H23 lung) was 4.12 µM, the TGI (NCI-H23 lung) was 16.7 µM and the GI50 (OVCAR-8 ovarian) was 2.77 µM. For the same compound, the TGI (OVCAR-8 ovarian) was 7.24 µM, the GI50 (SNB-19 CNS) was 2.55 µM and the TGI (SNB-19 CNS) was 6.56 µM. It also gave a GI50 (SR leukemia) of 1.94 µM, a TGI (SR leukemia) of 4.7 µM and a GI50 (IGROV1 ovarian) of 2.73 µM. It also gave a TGI (IGROV1 ovarian) of 8.49 µM, a GI50 (U251 CNS) of 1.83 µM and a TGI (U251 CNS) of 3.43 µM. It also gave a GI50 (TK-10 renal) of 1.8 µM, a TGI (TK-10 renal) of 3.76 µM and a GI50 (SK-MEL-28 melanoma) of 1.8 µM. The TGI (SK-MEL-28 melanoma) was 3.51 µM, the GI50 (HOP-62 NSCLC) was 2.03 µM and the TGI (HOP-62 NSCLC) was 5.76 µM. For the same compound, the GI50 (UACC-257 melanoma) was 2.09 µM, the TGI (UACC-257 melanoma) was 3.97 µM and the GI50 (SF-268 CNS) was 1.76 µM. The TGI (SF-268 CNS) was 3.94 µM, the GI50 (SK-MEL-5 melanoma) was 1.81 µM and the TGI (SK-MEL-5 melanoma) was 3.21 µM. The GI50 (T-47D breast) was 1.77 µM, the TGI (T-47D breast) was 3.53 µM and the GI50 (PC-3 prostate) was 4.15 µM. For the same compound, the TGI (PC-3 prostate) was 15.7 µM, the GI50 (ACHN renal) was 2.03 µM and the TGI (ACHN renal) was 4.61 µM. It also gave a GI50 (HCC-2998 colon) of 1.98 µM, a TGI (HCC-2998 colon) of 3.79 µM and a GI50 (UACC-62 melanoma) of 1.85 µM. For the same compound, the TGI (UACC-62 melanoma) was 3.78 µM, the GI50 (SW-620 colon) was 1.98 µM and the TGI (SW-620 colon) was 4.09 µM. For the same compound, the GI50 (MCF7 breast) was 1.85 µM, the TGI (MCF7 breast) was 4.24 µM and the GI50 (HCT-15 colon) was 1.79 µM. For the same compound, the TGI (HCT-15 colon) was 3.62 µM, the GI50 (SK-OV-3 ovarian) was 2.09 µM and the TGI (SK-OV-3 ovarian) was 4.83 µM. The GI50 (RXF 393 renal) was 2.1 µM, the TGI (RXF 393 renal) was 4.51 µM and the GI50 (SF-295 CNS) was 1.73 µM. For the same compound, the TGI (SF-295 CNS) was 3.42 µM, the GI50 (NCI-H226 lung) was 22.5 µM and the TGI (NCI-H226 lung) was 39.7 µM. For the same compound, the GI50 (MALME-3M melanoma) was 1.83 µM, the TGI (MALME-3M melanoma) was 3.54 µM and the GI50 (K-562 leukemia) was 2.07 µM. It also gave a TGI (K-562 leukemia) of 4.82 µM, a GI50 (HS 578T breast) of 2.09 µM and a TGI (HS 578T breast) of 4.78 µM. The GI50 (RPMI-8226 leukemia) was 2.59 µM, the TGI (RPMI-8226 leukemia) was 6.38 µM and the GI50 (SK-MEL-2 melanoma) was 2.13 µM. The TGI (SK-MEL-2 melanoma) was 4.22 µM, the GI50 (SF-539 CNS) was 1.77 µM and the TGI (SF-539 CNS) was 3.32 µM. For the same compound, the GI50 (DU-145 prostate) was 2.79 µM, the TGI (DU-145 prostate) was 8.47 µM and the GI50 (HCT-116 colon) was 1.93 µM. It also gave a TGI (HCT-116 colon) of 3.51 µM, a GI50 (MOLT-4 leukemia) of 2.26 µM and a TGI (MOLT-4 leukemia) of 6.42 µM. It also gave a GI50 (SN12C renal) of 2 µM, a TGI (SN12C renal) of 4.31 µM and a GI50 (786-0 renal) of 1.81 µM. It also gave a TGI (786-0 renal) of 3.41 µM, a GI50 (KM12 colon) of 2.42 µM and a TGI (KM12 colon) of 6.21 µM. It also gave a GI50 (NCI-H460 lung) of 2 µM, a TGI (NCI-H460 lung) of 3.86 µM and a GI50 (OVCAR-5 ovarian) of 2.78 µM. The TGI (OVCAR-5 ovarian) was 9.4 µM, the GI50 (OVCAR-3 ovarian) was 1.85 µM and the TGI (OVCAR-3 ovarian) was 3.91 µM. For the same compound, the GI50 (MDA-MB-231 breast) was 2.07 µM, the TGI (MDA-MB-231 breast) was 4.03 µM and the GI50 (NCI/ADR-RES ovarian) was 10.2 µM. It also gave a TGI (NCI/ADR-RES ovarian) of 24 µM, a GI50 (A549 NSCLC) of 2.06 µM and a TGI (A549 NSCLC) of 4.23 µM. For the same compound, the GI50 (MDA-MB-435) was 1.74 µM, the TGI (MDA-MB-435) was 3.26 µM and the GI50 (CCRF-CEM leukemia) was 2.97 µM. It also gave a TGI (CCRF-CEM leukemia) of 7.07 µM, a GI50 (EKVX NSCLC) of 1.56 µM and a TGI (EKVX NSCLC) of 3.69 µM. The GI50 (OVCAR-4 ovarian) was 2.6 µM, the TGI (OVCAR-4 ovarian) was 9.86 µM and the GI50 (COLO 205 colon) was 1.8 µM. It also gave a TGI (COLO 205 colon) of 3.58 µM, a GI50 (NCI-H522 lung) of 1.86 µM and a TGI (NCI-H522 lung) of 3.85 µM.

Source: PubChem BioAssay (NCI)
